Experimental data published in paper PMC11939955, “Enhancing Antimicrobial Peptides from Frog Skin: A Rational Approach” (Biomolecules, 2025).
“And” between values parts separate entries of the source, which are not always exact repeats. Equal values may be shown once. Where no end group is shown, it is not given here.

Legend:
[1] = DPPH radical-scavenging activity; conditions: peptides 0.1, 0.05, 0.025 mg/mL, 30 min dark 25 °C, absorbance 515 nm, triplicate
Procedure: A stock solution of 60 µM 1,1-diphenyl-2-picrylhydrazyl (DPPH) was prepared in ethanol, with its absorbance adjusted to 0.7 at 515 nm immediately before the assay using a Shimadzu 1240 UV–visible spectrophotometer (Kyoto, Japan). The peptides were dissolved in PBS, and 20 µL aliquots of each peptide solution were incubated with 180 µL of the ethanolic DPPH solution in triplicate, at final concentrations of 0.1, 0.05, and 0.025 mg/mL. For the negative control, 20 µL of PBS was mixed with 180 µL of the DPPH solution, while 20 µL of Trolox (6-hydroxy-2,5,7,8-tetramethylchroman-2-carboxylic acid) served as the positive control and standard. The mixtures were incubated in the dark at 25 °C for 30 min, after which, the absorbance was measured at 515 nm. The reduction in absorbance, indicative of DPPH-scavenging activity, was compared to a standard curve. The results were expressed as milligrams of Trolox equivalents per milligram of peptide (mg Trolox equivalents/mg of peptide).

[2] = ABTS assay; conditions: peptides 0.05, 0.025, 0.0125 mg/mL, 1 h dark, absorbance 734 nm, triplicate
Procedure: The 2,2-azinobis-3-ethylbenzothiazoline-6-sulfonic acid (ABTS^+) free radical-scavenging activity was determined following the method in [38]. The ABTS⁺ radical cation was generated by diluting a 245 mM ammonium persulfate (APS) solution at a ratio of 1:100 with a 7 mM ABTS solution, followed by overnight incubation in the dark at room temperature. The ABTS^+ solution was then diluted with water to obtain an absorbance of 0.70 at 734 nm immediately before the assay using a Shimadzu 1240 UV-visible spectrophotometer (Kyoto, Japan). The peptides were dissolved in PBS, and 10 µL aliquots of each peptide solution were incubated with 190 µL of the ABTS^+ solution in triplicate, at final concentrations of 0.05, 0.025, and 0.0125 mg/mL. After a 1 h incubation in the dark, the absorbance was measured at 734 nm. The radical-scavenging activity was quantified against a standard curve, with the results expressed as milligrams of Trolox equivalents per milligram of peptide.

[3] = tested on: Escherichia coli (ATCC 25922); type: cell-based; conditions: for Reduction in MIC against E. coli compared to hylin-Pul3: versus parent peptide hylin-Pul3
Procedure: (§1) Hylin-Pul3 and six derivatives (dHP3-31, dHP3-50, dHP3-50.137, dHP3-50.190, dHP3-84, and dHP3-84.39) were tested against two Gram-positive bacteria, Staphylococcus aureus (ATCC 25923) and Streptococcus mutans (ATCC 25175), as well as three Gram-negative bacteria: Escherichia coli (ATCC 25922), Klebsiella pneumoniae (ATCC 13883), and Acinetobacter baumannii (ATCC 13304). The minimal inhibitory concentration (MIC) was determined using the microbroth dilution.
(§2) The peptides were serially diluted in concentrations ranging 128 to 0.25 μM, with gentamicin serving as a positive control, which was serially diluted to concentrations of 20 to 0.04 μM. Bacterial cultures were prepared in Mueller–Hinton (MH) medium to achieve a final inoculum concentration of 5 × 10^5 CFU/mL. […] All tests were performed in duplicate and repeated across three independent experiments.

[4] = tested on: Acinetobacter baumannii (ATCC 13304); type: cell-based; conditions: for Reduction in MIC against A. baumannii compared to hylin-Pul3: versus parent peptide hylin-Pul3
Procedure: as §1, §2

[5] = tested on: Staphylococcus aureus (ATCC 25923); type: cell-based
Procedure: as §1, §2

[6] = tested on: Klebsiella pneumoniae (ATCC 13883); type: cell-based; conditions: ATCC 13883
Procedure: as §1, §2

[7] = tested on: Streptococcus mutans (ATCC 25175); type: cell-based
Procedure: as §1, §2

[8] = tested on: E. coli (ATCC 25922); assay: Synergistic checkerboard assay; type: cell-based, Escherichia coli
Procedure: Briefly, working solutions of the peptides were prepared and serially diluted by half across the rows and columns of a microplate, ensuring that each well contained a unique combination of peptide concentrations. The starting concentrations corresponded to the respective MIC values of each peptide, followed by two-fold serial dilutions.
Each well was filled with 50 µL of the peptide solution (individual or combined) and 50 µL of a bacterial suspension (1 × 10^6 CFU/mL), resulting in a final bacterial concentration of 5 × 10^5 CFU/mL. The individual peptide solutions served as positive controls, while the MH medium was employed as a negative control. The microplates were incubated at 37 °C overnight. The test was performed in three independent experiments. The fractional inhibitory concentrations index (ΣFIC) was calculated using the following equation: (1) ∑FIC =MIC(A) in combination/MIC(A) alone+MIC(B) in combination /MIC(B) alone
The FIC index (ΣFIC) was interpreted as follows: ΣFIC ≤ 0.5 indicated synergy; 0.5 < ΣFIC ≤ 4 indicated no effect; and 4 < ΣFIC indicated antagonism.

[9] = Carboxyfluorescein (CF) release from LUVs; design: species or system E. coli; conditions: at the lowest peptide concentrations (8, 32, 50, 64 μM tested); 10 min, ex 490 nm/em 517 nm, duplicate
Procedure: Large unilamellar vesicles (LUVs) were prepared with the total lipid extract of E. coli (Avanti Polar Lipids). For this, an aliquot of 1 mg of lipids dissolved in chloroform was deposited into a glass tube and dried by evaporation with nitrogen (N2). The glass tube underwent vacuum treatment to eliminate any residual solvent traces. The lipids were then hydrated in 200 μL of a 5,6-carboxyfluorescein (CF) solution (Sigma-Aldrich) at a concentration of 49 mM, pH 8, and 431 mOsm/kgH2O through nine cycles of heating (70 °C for 30 s), vortexing (1 min), and freezing (ice bath for 30 s). A polycarbonate filter with a pore size of 100 nm was employed to standardize the liposome size. Twenty-one extrusion cycles were conducted at 40 °C through the filter, resulting in LUVs with an average diameter of 100 nm. Size exclusion chromatography (Sephadex G-25) was utilized to remove the CF outside of the LUVs.
The fluorescence spectra of the CF-filled LUVs were measured using a FluoroMax3 Jobin Yvon spectrofluorometer (Horiba Jobin Yvon; Edison, NJ, USA). A 200 μL aliquot of the LUVs containing 100 μM CF was utilized for the experiment. Excitation was performed over a wavelength range of 400 to 540 nm, with the emission recorded at 517 nm. The peptides were added at various final concentrations (8, 32, 50, and 64 μM), and the fluorescence was assessed 10 min after each addition. […]

[10] = tested on: Human primary fibroblasts; type: cell-based; conditions: MTT, 24 h
Procedure: Human primary fibroblasts were kindly provided by CellSeq Solutions (Belo Horizonte, Brazil) and cultured in DMEM (Dulbecco’s Modified Eagle’s Medium, Gibco, Waltham, MA, USA) supplemented with 10% (v/v) fetal bovine serum (FBS; Gibco, Waltham, MA, USA) and a 1000 U/mL penicillin/streptomycin solution (Gibco, Waltham, MA, USA). The cells were maintained at 5% CO2, 37 °C, and 95% humidity.
To investigate the impact of the antimicrobial peptides hylin-Pul3, dHP3-31, dHP3-50, dHP3-50.137, dHP3-50.190, dHP3-84, and dHP3-84.39 on primary human fibroblast proliferation and viability, the 3-(4,5-dimethylthiazol-2-yl)-2,5-diphenyl tetrazolium bromide (MTT) metabolization assay (Sigma Aldrich; Misuri, USA) was performed. Human fibroblast cells (7 × 10^3 cells/well) were plated in a 96-well plate and treated with 0.5, 1, 5, 10, 25, 50, and 100 μg/mL of each peptide for 24 h. After this period, the cells were incubated with 5 mg/mL MTT for 4 h. The formazan crystals formed were solubilized by adding dimethyl sulfoxide (DMSO). The absorbance was measured at 570 nm using a spectrophotometer (Multiskan™ FC Microplate Photometer; Thermo Fisher Scientific, Waltham, MA, USA).

Substance	Antioxidant activity DPPH [1]	Antioxidant activity ABTS [2] [mg Trolox/mg]	Antimicrobial Activity (MIC) E. coli ATCC 25922 [3] [µM]	Reduction in MIC against E. coli compared to hylin-Pul3 [3] [fold]	Antimicrobial Activity (MIC) A. baumannii ATCC 13304 [4] [µM]	Reduction in MIC against A. baumannii compared to hylin-Pul3 [4] [fold]	Antimicrobial Activity (MIC) S. aureus ATCC 25923 [5] [µM]	Antimicrobial Activity (MIC) K. pneumoniae ATCC 13883 [6] [µM]	Antimicrobial Activity (MIC) S. mutans ATCC 25175 [7] [µM]	Synergistic Activity, FIC Index (ΣFIC) ([8]; combination of dHP3-84 and dHP3-50.137, E. coli ATCC 25922, 5 × 10^5 CFU/mL, 37 °C overnight, three independent experiments, ΣFIC ≤ 0.5 = synergy)	Improvement of combined activity compared to each peptide individually ([8]; dHP3-84 + dHP3-50.137, E. coli) [fold]	CF release from LUVs [9] [%]	Reduction in MIC of up to (Gram-negative strains) compared to hylin-Pul3 ([3]; strain not given, largest reduction)	Concentration at which fibroblast viability increased (proliferative effect) [10]
LWPAIRGAIKKLIKK-NH2 [dHP3-31]	did not reveal significant activity	0.14	16.0 ± 0.0	4	9.3 ± 3.2	4	37.3 ± 13.1	>64	18.7 ± 6.5	–	–	–	–	–
RAGALWPAIRGAIKKIIKK-NH2 [dHP3-50.137]	did not reveal significant activity	0.08	4.0 ± 0.0	4	8.0 ± 0.0	4	64.0 ± 0.0	53.3 ± 16.5	32.0 ± 0.0	0.5	2	50	up to 8 fold	–
RRGKLIPRLAKAIGRLIRK-OH [dHP3-84.39]	–	–	6.6 ± 4.8	–	16.0 ± 0.0	–	26.6 ± 8.3	64.0 ± 0.0	>64	–	–	50	–	5 μg/mL and 2.3 µM
